Reference: ChEMBL document CHEMBL4177677, “Relevance of Half-Life in Drug Design” (J Med Chem, 2018)

Assays:
[1] = Terminal half life in human at 0.1 mg/kg, iv; assay type: ADME, organism-based; conditions: in vivo, read-out: beta t1/2 (converted)
[2] = Drug excretion in human kidney; conditions: urine
[3] = Inhibition of human calcium channel
[4] = organism: Homo sapiens; assay: Unbound concentration in human at 5 to 10 mg, qd; assay type: ADME, organism-based; conditions: in vivo
[5] = Half life in human; assay type: ADME, organism-based; conditions: in vivo
[6] = Terminal half life in human; assay type: ADME, organism-based; conditions: in vivo, read-out: beta t1/2
[7] = organism: Homo sapiens; assay: Unbound concentration in human at 10 mg, tid; conditions: in vivo
[8] = Half life in human at 10 mg, tid; conditions: in vivo

NS(=O)(=O)N1CCN(C2CN(CC[C@]3(c4ccc(Cl)c(Cl)c4)CCC(=O)N(CC4CC4)C3)C2)CC1
half-life [1]: 28 h

NCCCC(O)(P(=O)(O)O)P(=O)(O)O [ALENDRONIC ACID]
dose excreted [2]: 20 to 80%

CCOC(=O)C1=C(COCCN)NC(C)=C(C(=O)OC)C1c1ccccc1Cl (stereo not given) [AMLODIPINE]
IC50 [3]: 2 nM
Drug uptake(free) [4]: 2 nM

COc1cc(F)c(C(C)C)cc1-c1ccc(C(F)(F)F)cc1CN1C(=O)O[C@H](c2cc(C(F)(F)F)cc(C(F)(F)F)c2)[C@@H]1C [ANACETRAPIB]
half-life [5]: 60 h

CC(C(=O)O)c1ccc2oc(-c3ccc(Cl)cc3)nc2c1 (stereo not given) [BENOXAPROFEN]
half-life [6]: 19 to 26 h

COC(=O)C1=C(C)NC(C)=C(C(=O)OC)C1c1ccccc1[N+](=O)[O-] [NIFEDIPINE]
Drug uptake(free) [7]: 6 nM
half-life [8]: 2 h
IC50 [3]: 4 nM

C[C@@H]1CCN(C(=O)CC#N)C[C@@H]1N(C)c1ncnc2[nH]ccc12 [TOFACITINIB]
half-life [5]: 3 h
